Results on two compounds are retold here after US20150299659A1, “MUSCLE CELL PRODUCTION” (Monash University, priority 2014, published 2015).

Common to all, as to assay type: cell-based, human
Data set [1] deals with hPSCs. Briefly: CHIR concentration optimisation for differentiation of hPSCs towards a myogenic phenotype. As to the method: Experiments were performed using all four hPSC lines. When colony size reached >600 μm in diameter and colony density on the plate was approximately 30-40%, we induced differentiation of hPSC by switching the culture medium from mTESR1 to a chemically defined, serum-free medium DMEM-F12 supplemented with insulin-transferrin-selenium (ITS) (all from Sigma-Aldrich, St. Louis, Mo.). […] Culture medium was then replaced by ITS containing 20 ng/ml of FGF2 (Miltenyi Biotech) for a further 14 days. For each experimental control condition, hPSCs differentiation was induced as follows: 1) CHIR only: ITS medium containing 3 μM CHIR from days 0-4, followed by ITS medium only until day of analysis; and 2) FGF2 only: ITS medium only between days 0-4, followed by ITS medium containing 20 ng/ml FGF2 for 14 days. Medium was replaced daily until the day of the analysis. Human PSCs were first exposed to 3 μM CHIR for 4 days, and then the small molecule was replaced with 20 ng/ml of FGF2 for an additional 2 weeks (FIG. 2A). To optimize the differentiation of hPSCs towards a myogenic phenotype, different CHIR concentrations were tested. […] The FGF signaling pathway has been identified to regulate several developmental processes of muscle formation. […]

The subject of data set [2] is hPSCs. Briefly: Immunocytochemical quantification of muscle cells in unsorted hPSC cultures. The note with it: exposure to CHIR for up to 10 days. The procedure: Experiments were performed using all four hPSC lines. When colony size reached >600 μm in diameter and colony density on the plate was approximately 30-40%, we induced differentiation of hPSC by switching the culture medium from mTESR1 to a chemically defined, serum-free medium DMEM-F12 supplemented with insulin-transferrin-selenium (ITS) (all from Sigma-Aldrich, St. Louis, Mo.). […] Culture medium was then replaced by ITS containing 20 ng/ml of FGF2 (Miltenyi Biotech) for a further 14 days. For each experimental control condition, hPSCs differentiation was induced as follows: 1) CHIR only: ITS medium containing 3 μM CHIR from days 0-4, followed by ITS medium only until day of analysis; and 2) FGF2 only: ITS medium only between days 0-4, followed by ITS medium containing 20 ng/ml FGF2 for 14 days. […]
For cytospin preparations of FACS sorted populations, cells were spun onto glass slides using Cytospin 4 (Shandon, Thermofisher, Waltham, Mass.). […] Images were analyzed with Nikon NIS-Elements 3.2 software. […]
Following withdrawal of FGF2 and a further 17 days of culture in ITS medium alone areas with skeletal muscle cells were scored in treated culture dishes, prior to FACS analysis and identified by immunocytochemistry as PAX3+ and PAX7+ precursors (FIG. 2B) (Relaix et al (2005) Nature 435:948-953) and bipolar skeletal myocytes, positive for myogenin and sarcomeric myosin (MF20) (FIG. 2C).

In data set [3] the test system is hPSCs. The experiment in a line: FACS quantification of myogenic cell populations from differentiated hPSCs. Conditions: for percentage of CXCR4+/C-MET+ and ACHR+ populations compared to CHIR+FGF2 cultures: single-agent conditions (CHIR only or FGF2 only). As to the method:
Experiments were performed using all four hPSC lines. When colony size reached >600 μm in diameter and colony density on the plate was approximately 30-40%, we induced differentiation of hPSC by switching the culture medium from mTESR1 to a chemically defined, serum-free medium DMEM-F12 supplemented with insulin-transferrin-selenium (ITS) (all from Sigma-Aldrich, St. Louis, Mo.). Starting at day 0 of differentiation, cells were cultured in the presence of 3 μM CHIR 99021 (Miltenyi Biotech, Auburn, Calif.) for 4 days. Culture medium was then replaced by ITS containing 20 ng/ml of FGF2 (Miltenyi Biotech) for a further 14 days. For each experimental control condition, hPSCs differentiation was induced as follows: 1) CHIR only: ITS medium containing 3 μM CHIR from days 0-4, followed by ITS medium only until day of analysis; and 2) FGF2 only: ITS medium only between days 0-4, followed by ITS medium containing 20 ng/ml FGF2 for 14 days. Medium was replaced daily until the day of the analysis.
(§1) Cells were dissociated with 0.05% trypsin or TrypLE Select (Invitrogen, Carlsbad, Calif.) to a single cell suspension and incubated with the appropriate fluorochrome-labelled antibodies (Table 1) at a concentration of 10^7 cells/ml for 30 minutes on ice. Indirect labelling of HNK and ACHR antibodies was done using goat anti-mouse Alexa Fluor 488 and goat anti-mouse PE (both from Molecular Probes, Invitrogen) as secondary antibodies. Labelled cells were sorted through a BD Influx (five lasers) flow sorter (BD Biosciences) according to the excitation requirements of the fluorochromes. Sorted populations were analyzed using FlowJo software (Tree Star Inc., Ashland, Oreg.).
Data were analyzed by two-way analysis of variance (ANOVA) followed by Bonferroni's post-test to calculate p values. Analyses were performed using statistical software (GraphPad Prism 5.04; GraphPad Software, San Diego, Calif.). Probability values <0.05 were considered statistically significant. Error bars in each figure represent the standard error of the mean of three or more individual experiments. For qPCR data, p values were calculated for changes in expression of markers over time compared to day 0. For quantitative analysis of FACS sorting data, the percentage of myogenic cells relative to the total number of cells were obtained for each experimental culture treatment, and p values were calculated for differences between the means of each experimental condition.

Another data set deals with hESC (HES3). Briefly: RT-PCR and marker analysis of dorsal tissue and endoderm in differentiating hPSCs. The procedure: For cytospin preparations of FACS sorted populations, cells were spun onto glass slides using Cytospin 4 (Shandon, Thermofisher, Waltham, Mass.). Cells were then fixed with 100% cold methanol for 5 minutes and subsequently rehydrated in phosphate buffered solution (PBS) for 15-20 minutes. Cultured cells were fixed with 4% paraformaldehyde for 10 minutes at room temperature and permeabilized with 0.3% Triton X-100 in PBS for 30 minutes. A complete list of primary and fluorochrome-labelled secondary antibodies used in this study is provided in the Supporting Information (Table 1). Incubations with primary and subsequently secondary antibodies were performed in Incubation Buffer (0.1% BSA, 2% FBS, 0.1% Triton X-100 in PBS) for 40 minutes at 37° C. Image acquisition was performed on an inverted Nikon Eclipse Ti epifluorescence microscope with the appropriate filter sets using single channel acquisition on a Nikon Digital sight DS-U2 camera. Images were analyzed with Nikon NIS-Elements 3.2 software. All immunofluorescence images are representative of one individual experiment. […]
Total RNA was extracted using RNeasy Mini kit (Qiagen, Hilden, Germany), and DNAse I treatment (Qiagen) was performed to avoid genomic DNA contamination. […] The inventors optimized the PCR conditions and determined the linear amplification range for each primer by varying annealing temperature and cycle number. […]

The test system of another data set is hESC HES3. The experiment in a line: Immunocytochemistry of cytospin preparations of sorted cells. The procedure:
as §1
For cytospin preparations of FACS sorted populations, cells were spun onto glass slides using Cytospin 4 (Shandon, Thermofisher, Waltham, Mass.). Cells were then fixed with 100% cold methanol for 5 minutes and subsequently rehydrated in phosphate buffered solution (PBS) for 15-20 minutes. Cultured cells were fixed with 4% paraformaldehyde for 10 minutes at room temperature and permeabilized with 0.3% Triton X-100 in PBS for 30 minutes. A complete list of primary and fluorochrome-labelled secondary antibodies used in this study is provided in the Supporting Information (Table 1). […] Images were analyzed with Nikon NIS-Elements 3.2 software. […]

Turning to `Cc1c[nH]c(-c2cnc(NCCNc3ccc(C#N)cn3)nc2-c2ccc(Cl)cc2Cl)n1` [CHIR, CHIR 99021], the “toxicity to differentiating hPSCs” value in the data set with hPSCs [1] (CHIR concentration >3 μM) is on record as “High toxicity”. The “induction of myogenic phenotype” value in the data set with hPSCs [1] (CHIR doses of <3 μM) was “inefficient induction”. Also, the “muscle derivation after prolonged exposure” value in the data set with hPSCs [2] was “no muscle cells were identified”. Besides, the “myogenic induction of hPSCs” value in the data set with hPSCs [3] (CHIR only, 3 μM days 0-4, then ITS medium only) is recorded as “sufficient for myogenic induction”. In the data set on hPSCs [3], the “percentage of CXCR4+/C-MET+ and ACHR+ populations compared to CHIR+FGF2 cultures” value is “Reduction in the percentage”. Also, the “expression of dorsal markers SOX10 and LMX1a (RT-PCR)” value in the data set on hESC (HES3) (day 10 of hESC (HES3) differentiation) was “expressed only in CHIR (GSK3β inhibitor) treated cells”. The “generation of endoderm cells” value in the data set on hESC (HES3) (lack of specific endodermal markers in the cultures) is “not permissive for the generation of endoderm cells”.

For “FGF2: fibroblast growth factor, used at 20 ng/ml to expand the muscle precursor compartment”, the “cell fate of CXCR4+/C-MET− and CXCR4−/C-MET+ fractions compared to CHIR+FGF2” value with hPSCs [3] (FGF2 only, absence of CHIR treatment) is given as “fundamental shift from a myogenic to a non-myogenic cell fate”. Besides, the “percentage of CXCR4+/C-MET+ and ACHR+ populations compared to CHIR+FGF2 cultures” value with hPSCs [3] is “almost complete loss”. For the same compound, in the data set with hESC HES3, the “phenotype of sorted CXCR4+/C-MET− cells” value is on record as “complete switch towards SOX1 expression”; the “phenotype of sorted CXCR4−/C-MET+ cells” value was “PAX3+ and PAX7+ cells are not present”.
